Experimental findings from US20260285857A1, “BICYCLIC AND HETEROCYCLIC AMIDE COMPOUNDS” (priority 2024, published 2026) are described below.

The subject of one assay is immunoglobulin light chain protein WIL-FL T46L. Put plainly: Differential scanning fluorimetry (thermal shift) assay. Type of assay: binding. As to conditions: Table A; temperature shift [Tm]compound-[Tm]vehicle; recombinant WIL-FL T46L. Background: In DSF a fluorescence change marks the thermal transition of the protein.
Turning to `Cc1nc(C2C3(c4nc5c(C)cc(N6CC[C@](C)(c7ccccc7)C6)cn5n4)CC2(C(C)(C)O)CO3)n[nH]1` (mixture of isomers) [Compound 3, 2-[1-[8-methyl-6-[rac-(3R)-3-methyl-3-phenyl-pyrrolidin-1-yl]-[1,2,4]triazolo[1,5-a]pyridin-2-yl]-5-(5-methyl-1H-1,2,4-triazol-3-yl)-2-oxabicyclo[2.1.1]hexan-4-yl]propan-2-ol], the DSF result was “***** (>2.5° C.=*****)”.
With `Cc1nc(C2C3(C(=O)O)COC2(c2nc4c(C)cc(N5CC[C@](C)(c6ccccc6)C5)cn4n2)C3)n[nH]1` (stereo partly drawn) [Compound 1A, 5-(5-methyl-1H-1,2,4-triazol-3-yl)-1-(8-methyl-6-((R)-3-methyl-3-phenylpyrrolidin-1-yl)-[1,2,4]triazolo[1,5-a]pyridin-2-yl)-2-oxabicyclo[2.1.1]hexane-4-carboxylic acid], the DSF result is recorded as “***** (>2.5° C.=*****)”.
Still for that read-out and setting: under `Cc1cc(N2CC[C@](C)(c3ccccc3)C2)cn2nc(C34CC(N)(CO3)C4CO)nc12` (stereo partly drawn) [Compound 4, (4-amino-1-(8-methyl-6-((R)-3-methyl-3-phenylpyrrolidin-1-yl)-[1,2,4]triazolo[1,5-a]pyridin-2-yl)-2-oxabicyclo[2.1.1]hexan-5-yl)methanol] stands “***** (>2.5° C.=*****)”.
For `Cc1cc(N2CC[C@](C)(c3ccccc3)C2)cn2nc(C34CC(N)(CO3)C4)nc12` [Compound 5, 1-[8-methyl-6-[(3R)-3-methyl-3-phenyl-pyrrolidin-1-yl]-[1,2,4]triazolo[1,5-a]pyridine-2-yl]-2-oxabicyclo[2.1.1]hexan-4-amine], the DSF entry was “***** (>2.5° C.=*****)”.
Take `Cc1cc(N2CC[C@](C)(c3ccccc3)C2)cn2nc(C34CC(CO3)C4c3nc(C(N)=O)n[nH]3)nc12` (stereo partly drawn) [Compound 6, 5-[1-[8-methyl-6-[(3R)-3-methyl-3-phenyl-pyrrolidin-1-yl]-[1,2,4]triazolo[1,5-a]pyridine-2-yl]-2-oxabicyclo[2.1.1]hexan-5-yl]-1H-1,2,4-triazole-3-carboxamide]: the DSF result was “***** (>2.5° C.=*****)”.
For the molecule `Cc1cc(N2CC[C@](C)(c3ccccc3)C2)cn2nc(C34CC(CO3)C4CNc3cccc(C(=O)O)n3)nc12` (stereo partly drawn) [Compound 8, 6-[[1-[8-methyl-6-[(3R)-3-methyl-3-phenyl-pyrrolidin-1-yl]-[1,2,4]triazolo[1,5-a]pyridin-2-yl]-2-oxabicyclo[2.1.1]hexan-5-yl]methylamino]pyridine-2-carboxylic acid], the DSF entry was “***** (>2.5° C.=*****)”.
With `Cc1nc(CC2C3COC2(c2nc4c(C)cc(N5CC[C@](C)(c6ccccc6)C5)cn4n2)C3)n[nH]1` (stereo partly drawn) [Compound 9, 8-methyl-6-[(3R)-3-methyl-3-phenyl-pyrrolidin-1-yl]-2-[5-[(5-methyl-1H-1,2,4-triazol-3-yl)methyl]-2-oxabicyclo[2.1.1]hexan-1-yl]-[1,2,4]triazolo[1,5-a]pyridine], the DSF entry is given as “***** (>2.5° C.=*****)”.
In the case of `CC(=O)Nc1n[nH]c(C2C3COC2(c2nc4c(C)cc(N5CC[C@](C)(c6ccccc6)C5)cn4n2)C3)n1` (stereo partly drawn) [Compound 10, N-[5-[1-[8-methyl-6-[(3R)-3-methyl-3-phenyl-pyrrolidin-1-yl]-[1,2,4]triazolo[1,5-a]pyridine-2-yl]-2-oxabicyclo[2.1.1]hexan-5-yl]-1H-1,2,4-triazol-3-yl]acetamide], the DSF entry was “***** (>2.5° C.=*****)”.
The same measure, in the same setting: under `Cc1cc(N2CC[C@](C)(c3ccccc3)C2)cn2nc(C34CC(CO3)C4c3cn(C)nn3)nc12` (stereo partly drawn) [Compound 11, 8-methyl-6-[(3R)-3-methyl-3-phenyl-pyrrolidin-1-yl]-2-[5-(1-methyltriazol-4-yl)-2-oxabicyclo[2.1.1]hexan-1-yl]-[1,2,4]triazolo[1,5-a]pyridine] stands “***** (>2.5° C.=*****)”; under `Cc1cc(N2CC[C@](C)(c3ccccc3)C2)cn2nc(C3OC4(CO)CC3(C(N)=O)C4)nc12` (stereo partly shown) [Compound 12], “***** (>2.5° C.=*****)”; under `Cc1cc(N2CC[C@](C)(c3ccccc3)C2)cn2nc(C34CC(CO3)C4c3noc(=O)[nH]3)nc12` (stereo partly drawn) [Compound 13, 3-[1-[8-methyl-6-[(3R)-3-methyl-3-phenyl-pyrrolidin-1-yl]-[1,2,4]triazolo[1,5-a]pyridin-2-yl]-2-oxabicyclo[2.1.1]hexan-5-yl]-4H-1,2,4-oxadiazol-5-one], “***** (>2.5° C.=*****)”.
On the same count and under the same terms, the result for `CNC(=O)c1nc2c(C)cc(N3CCC(C)(c4ncco4)C3)cn2n1` (stereo not shown) [Compound 14, N,8-dimethyl-6-(3-methyl-3-(oxazol-2-yl)pyrrolidin-1-yl)-[1,2,4]triazolo[1,5-a]pyridine-2-carboxamide] reads “** (>0.5-1 °C =**)”; that for `CNC(=O)c1nc2c(C)cc(N3CCC(C)(c4nccs4)C3)cn2n1` (stereo not shown) [Compound 15, N,8-dimethyl-6-(3-methyl-3-(thiazol-2-yl)pyrrolidin-1-yl)-[1,2,4]triazolo[1,5-a]pyridine-2-carboxamide], “***** (>2.5° C.=*****)”.
As to `CNC(=O)c1nc2c(C)cc(OC3CCC3(C)c3ccccc3)cn2n1` (stereo not shown) [Compound 16, N,8-dimethyl-6-(2-methyl-2-phenylcyclobutoxy)-[1,2,4]triazolo[1,5-a]pyridine-2-carboxamide], the DSF entry is reported as “* (0-0.5° C.=*)”.
Still for that read-out and setting: the result for `Cc1cccc(C2CCC23CN(c2cc(C)c4nc(C(=O)N5CC[C@@]6(CCN(c7cccc(C(=O)O)n7)C6)C5)nn4c2)C3)c1` (stereo partly drawn) [Compound 17, 6-((5R)-7-(8-methyl-6-(5-(m-tolyl)-2-azaspiro[3.3]heptan-2-yl)-[1,2,4]triazolo[1,5-a]pyridine-2-carbonyl)-2,7-diazaspiro[4.4]nonan-2-yl)picolinic acid] reads “***** (>2.5° C.=*****)”.
With `Cc1cc(N2CC[C@](C)(c3ccccc3)C2)cn2nc(C(=O)NC3CC4(COC4)C3)nc12` [Compound 18, (R)-8-methyl-6-(3-methyl-3-phenylpyrrolidin-1-yl)-N-(2-oxaspiro[3.3]heptan-6-yl)-[1,2,4]triazolo[1,5-a]pyridine-2-carboxamide], the DSF entry is recorded as “***** (>2.5° C.=*****)”.
On to `Cc1cc(N2CC[C@](C)(c3ccccc3)C2)cn2nc(C(=O)NC3CCN(c4cccc(C(=O)O)n4)C3)nc12` (stereo partly drawn) [Compound 19, 6-(3-(8-methyl-6-((R)-3-methyl-3-phenylpyrrolidin-1-yl)-[1,2,4]triazolo[1,5-a]pyridine-2-carboxamido)pyrrolidin-1-yl)picolinic acid], for which the DSF entry is “***** (>2.5° C.=*****)”.
Still for that read-out and setting: the result for `Cc1cc(N2CC[C@](C)(c3ccccc3)C2)cn2nc(C(=O)NC3CCN(c4cccc(C(=O)O)n4)CC34COC4)nc12` (stereo partly drawn) [Compound 20, 6-(9-(8-methyl-6-((R)-3-methyl-3-phenylpyrrolidin-1-yl)-[1,2,4]triazolo[1,5-a]pyridine-2-carboxamido)-2-oxa-6-azaspiro[3.5]nonan-6-yl)picolinic acid] reads “***** (>2.5° C.=*****)”.
Turning to `Cc1cc(N2CC[C@](C)(c3ncco3)C2)cn2nc(C(=O)N3CC[C@@]4(CCN(c5cccc(C(=O)O)n5)C4)C3)nc12` [Compound 21, 6-((R)-7-(8-methyl-6-((S)-3-methyl-3-(oxazol-2-yl)pyrrolidin-1-yl)-[1,2,4]triazolo[1,5-a]pyridine-2-carbonyl)-2,7-diazaspiro[4.4]nonan-2-yl)picolinic acid], the DSF result is listed as “*** (>1-1.5° C.=***)”.
Turning to `C[C@]1(c2ccccc2)CCN(c2cc(N)c3cc(C(=O)N4CC[C@@]5(CCN(c6cccc(C(=O)O)n6)C5)C4)nn3c2)C1` [Compound 22, 6-((R)-7-(4-amino-6-((R)-3-methyl-3-phenylpyrrolidin-1-yl)pyrazolo[1,5-a]pyridine-2-carbonyl)-2,7-diazaspiro[4.4]nonan-2-yl)picolinic acid], the DSF entry is recorded as “**** (>1.5-2.5° C.=****)”.
For the molecule `Cc1cc(N2CCC(C)(C3CC4(CC4)C3)C2)cn2nc(C(=O)N3C[C@@H]4CN(c5cccc(C(=O)O)n5)C[C@@H]4C3)nc12` (stereo partly drawn) [Compound 23, 6-((3aR,6aS)-5-(8-methyl-6-(3-methyl-3-(spiro[2.3]hexan-5-yl)pyrrolidin-1-yl)-[1,2,4]triazolo[1,5-a]pyridine-2-carbonyl)hexahydropyrrolo[3,4-c]pyrrol-2(1H)-yl)picolinic acid], the DSF result is given as “**** (>1.5-2.5° C.=****)”.

The same assay, now with this note: Table B; temperature shift [Tm]compound-[Tm]vehicle; recombinant WIL-FL T46L.
Consider `Cc1cc(N2CC[C@](C)(c3ccccc3)C2)cn2nc(C(=O)N3CCC4(CCN(c5ccc(C#N)c(C(=O)O)n5)C4)C3)nc12` (mixture of isomers) [Compound 609, 3-cyano-6-[2-[8-methyl-6-[rac-(3R)-3-methyl-3-phenyl-pyrrolidin-1-yl]-[1,2,4]triazolo[1,5-a]pyridine-2-carbonyl]-2,7-diazaspiro[4.4]nonan-7-yl]pyridine-2-carboxylic acid], for which the DSF entry is reported as “***** (>2.5° C.=*****)”.
`Cc1cc(N2CC[C@](C)(c3ccccc3)C2)cn2nc(C(=O)NC3CC[C@]4(CCN(c5cccc(C(=O)O)n5)C4)C3)nc12` (mixture of isomers) [Compound 633, 6-[rac-(5S)-8-[[8-methyl-6-[rac-(3R)-3-methyl-3-phenyl-pyrrolidin-1-yl]-[1,2,4]triazolo[1,5-a]pyridine-2-carbonyl]amino]-2-azaspiro[4.4]nonan-2-yl]pyridine-2-carboxylic acid]: the DSF result is “***** (>2.5° C.=*****)”.
Take `Cc1cc(N2CC[C@](C)(c3ccccc3)C2)cn2nc(C(=O)NC3CC[C@@]4(CCN(c5cccc(C(=O)O)n5)C4)C3)nc12` (mixture of isomers) [Compound 634, 6-[rac-(5R)-8-[[8-methyl-6-[rac-(3R)-3-methyl-3-phenyl-pyrrolidin-1-yl]-[1,2,4]triazolo[1,5-a]pyridine-2-carbonyl]amino]-2-azaspiro[4.4]nonan-2-yl]pyridine-2-carboxylic acid]: the DSF entry was “***** (>2.5° C.=*****)”.
For the molecule `Cc1cc(N2CC[C@](C)(c3ccccc3)C2)cn2nc(C(=O)NC34COC(CN(c5cccc(C(=O)O)n5)C3)C4)nc12` (mixture of isomers) [Compound 690, 6-[1-[[8-methyl-6-[rac-(3R)-3-methyl-3-phenyl-pyrrolidin-1-yl]-[1,2,4]triazolo[1,5-a]pyridine-2-carbonyl]amino]-6-oxa-3-azabicyclo[3.2.1]octan-3-yl]pyridine-2-carboxylic acid], the DSF result is “***** (>2.5° C.=*****)”.
